In test [1] the target is T1, Human KIF18A (amino acid sequence 1-417) (Homo sapiens, UniProt Q8NI77).
T1 construct: purchased Viva Biotech (Shanghai) Ltd
T1 sequence (Q8NI77 1-417): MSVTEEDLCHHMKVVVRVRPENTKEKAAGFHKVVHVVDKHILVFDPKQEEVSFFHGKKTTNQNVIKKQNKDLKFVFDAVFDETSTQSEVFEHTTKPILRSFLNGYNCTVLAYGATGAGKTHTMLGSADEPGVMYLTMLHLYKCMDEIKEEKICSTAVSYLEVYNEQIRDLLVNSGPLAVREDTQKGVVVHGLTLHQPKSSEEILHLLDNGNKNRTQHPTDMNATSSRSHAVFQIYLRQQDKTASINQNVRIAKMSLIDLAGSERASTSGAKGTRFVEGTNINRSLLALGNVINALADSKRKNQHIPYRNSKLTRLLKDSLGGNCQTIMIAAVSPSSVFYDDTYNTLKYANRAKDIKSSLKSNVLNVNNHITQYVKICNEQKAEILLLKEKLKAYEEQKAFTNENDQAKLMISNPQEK
The experiment in a line: Enzymatic activity test (ADP-Glo, microtubule-stimulated ATPase). The test is classed as biochemical. The following applies: 60 µg/mL microtubules, 25 µM ATP, 2.5 nM KIF18A protein, 120 min at ambient temperature, chemiluminescence; read-out: KIF18A IC50. A digest of the protocol: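 Compounds (0-10 µM final, from 10 mM DMSO stock) were incubated 120 min at room temperature with 2.5 nM KIF18A 1-417, 25 µM ATP and 60 µg/mL microtubules. ATPase output was measured as ADP via ADP-Glo luminescence.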

The subject of test [2] is OVCAR3 cells. As to the kind of experiment: Cell proliferation activity test (CyQUANT Direct). The following applies: 3 days, 0.2% DMSO, CyQUANT fluorescence. The test is classed as cell-based. A digest of the protocol:
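OVCAR3 cells in RPMI-1640 with 10% FBS were seeded, then treated overnight later with compound at final 0–10 µM (0.2% DMSO) for 3 days at 37°C, 5% CO2. Proliferation was read as CyQUANT Direct fluorescence after 60 min at 37°C.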

Test [3] relates to HT29 cells. As to the kind of experiment: CyQuant cell proliferation activity test. To be noted: HT29 at 2000 cells per well, 3 days, 0.2% DMSO, XLFIT. In kind it is cell-based. A digest of the protocol: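 Cells seeded at 2000/well in RPMI-1640 with 10% FBS, left overnight, then exposed 3 days at 37 °C, 5% CO2 to a 9-point 3-fold series from 3000 nM (0.2% DMSO). CyQuant signal read after 1 h; IC50 from curve fit.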

Read-outs that look alike come from different tables or passages of the source.

For orientation: IC50 means the midpoint of a concentration-inhibition curve. Turning to `Cc1cc2nc(n1)N1CCC(F)(F)C(/C=C/CC3CCN(CC3)c3cc(NS(=O)(=O)CCO)c(C(=O)O)cc3-n3cc-2nn3)C1` (stereo not drawn) [Example 91, 1^4,1^4-difluoro-4^4-((2-hydroxyethyl)sulfonamido)-2^6-methyl-3^1H-2(2,4)-pyrimidin-1(1,3),5(1,4)-dipiperidin-3(4,1)-triaz ole-4(1,2)-benzocyclooct-7-en-4^5 carboxylic acid], the 50% inhibitory concentration (IC50) in test [1] was 37 nM; in test [2] (Homo sapiens, OVCAR-3, 72 h) it was more than 3000 nM; in test [3] (Homo sapiens, HT-29, 72 h) it was more than 3000 nM.

Turning to `COC(=O)c1cc2c(cc1NS(=O)(=O)CCO)N1CCC(C/C=C/C3CN(CCC3(F)F)c3nc(C)cc(n3)-c3cn-2nn3)CC1` (stereo not drawn) [Example 92A, methyl(3^4Z,7E)-1^4,1^4-difluoro-4^4-((2-hydroxyethyl)sulfonamido)-2^6-methyl 3^1H-2(2,4)-pyrimidin-1(1,3),5(1,4)-dipiperidin-3(4,1)-triazole-4(1,2)-benzocyclooct-7-en-4^5carboxylate], the IC50 was 427 nM in test [1]; 141 nM in test [2] (Homo sapiens, OVCAR-3, 72 h); 154 nM in test [3] (Homo sapiens, HT-29, 72 h).

On to “Methyl(3^4Z,7Z)-1^4,1^4-difluoro-4^4-((2-hydroxyethyl)sulfonamido)-2^6-methyl 3^1H-2(2,4)-pyrimidin-1(1,3),5(1,4)-dipiperidin-3(4,1)-triazole-4(1,2)-benzocyclooct-7-en-4^5 carboxylate [Example 92B]”, for which the IC50 in test [1] was 405 nM; in test [2], 173 nM; in test [3] (read-out: HT-29 IC50) it was 164 nM.

With “N-(1^4,1^4,5^1,5^1-tetrafluoro-2^6-methyl-4-dioxo-5^2,5^3-dihydro-5^1H-3-aza-2(2,4)-pyrimidin-1(1,3),6(1,4)-dipiperidin-5(4,5)-benzofurancyclononane-8-en-5^7-yl)-ethanesulfonamide [Example 20]”, the IC50 stood at 410 nM in test [1], 57 nM in test [2] and 69 nM in test [3] (read-out: HT-29 IC50).

In the case of “N-(1^4,1^4-difluoro-2^6-methyl-5^1,4-dioxo-5^1,5^2,5^3,5^4-tetrahydro-3-aza-2(2,4)-pyrimidin-1(1,3),6(1,4)-dipiperidin-5(5,6)-in denoheterocyclonon-8-en-5^8-yl)-2-hydroxyethane-1-sulfonamide [Example 8]”, the figures for the IC50 in test [1], in test [2] and in test [3] (read-out: HT-29 IC50) were 48 nM, 37 nM and 43 nM, respectively.

Regarding “N-((1^3R,Z)-1^4,1^4-difluoro-5^1-hydroxy-2^6-methyl-4-oxo-5^2,5^3-dihydro-5^1H-3-aza-2(2,4)-pyrimidin-1(1,3),6(1,4)-dipiperi din-5(4,5)-indenoheterocyclonon-8-en-5^7-yl)-2-hydroxyethane-1-sulfonamide [Example 7]”, the IC50 in test [1] came to 51 nM; in test [2], 41 nM; in test [3] (read-out: HT-29 IC50), 26 nM.

In the case of “N-((3^4Z,7E)-1^4,1^4-difluoro-2^6-methyl-3^1H-2(2,4)-pyrimidin-1(1,3),5(1,4)-dipiperidin-3(4,1)-triazole-4(1,2)-benzocyclooct-7 -en-4^4-yl)-2-hydroxyethane-1-sulfonamide [Example 81C]”, the IC50 in test [1] turned out to be 521 nM; in test [2] it was 500 nM; in test [3] (read-out: HT-29 IC50), 671 nM.

Regarding “N-((3^4Z,7E)-1^4,1^4-difluoro-2^6-methyl-3^1H-2(2,4)-pyrimidin-1(1,3),5(1,4)-dipiperidin-3(4,1)-triazole-4(1,2)-benzocyclooct-7 -en-4^4-yl)-2-hydroxyethane-1-sulfonamide [Example 81D]”, the concentration for half-maximal inhibition (IC50) came out at 132 nM in test [1], 31 nM in test [2] and 29 nM in test [3] (read-out: HT-29 IC50).

As to “N-((3^4Z, 7Z)-1^4,1^4-difluoro-2^6-methyl-3^1H-2(2,4)-pyrimidin-1(1,3),5(1,4)-dipiperidin-3(4,1)-triazole-4(1,2)-benzocyclooct-7-en-4^4-y 1)-2-hydroxyethane-1-sulfonamide [Example 81A]”, the IC50 in test [1] was determined as 219 nM; in test [2] it was 22 nM; in test [3] (read-out: HT-29 IC50), 23 nM.

On to “N-((3^4Z, 7Z)-1^4,1^4-difluoro-2^6-methyl-3^1H-2(2,4)-pyrimidin-1(1,3),5(1,4)-dipiperidin-3(4,1)-triazole-4(1,2)-benzocyclooct-7-en-4^4-y 1)-2-hydroxyethane-1-sulfonamide [Example 81B]”, for which the IC50 in test [1] was 491 nM; in test [2], 178 nM; in test [3] (read-out: HT-29 IC50) it was 254 nM.

Values taken from EP4772509A1, “KINESIN KIF18A INHIBITOR, AND APPLICATION THEREOF” (Shanghai Apeiron Therapeutics Company Limited, priority 2023, dated 2025).
